The text below walks through data of PubChem BioAssay AID504503 (Southern Research Specialized Biocontainment Screening …, 2011).

Structures are written as SMILES.

A word on the IC50: it is the concentration that gives 50% inhibition.

The experiment deals with human PBMC, CCR5-tropic HIV-1 replication, RT activity. Put plainly: antiviral activity against R5-tropic HIV-1 in PBMC – cell-based, CCR5-tropic HIV-1, primary PBMCs, dose response (AID 504503).
In the case of `Cc1c2c(=O)n(-c3nc4ccccc4s3)nc-2cc(O)n1CCc1cccs1`, the IC50 was 16.6 µM.

For the compound `COc1ccccc1Cn1c(O)cc2nn(-c3nc4ccccc4s3)c(=O)c-2c1C`, the IC50 was 3.93 µM.

With `Cc1c2c(=O)n(-c3nc4ccccc4s3)nc-2cc(O)n1Cc1ccncc1`, the IC50 is 1.6 µM.

Turning to `Cc1c2c(=O)n(-c3nc4ccccc4s3)nc-2cc(O)n1Cc1cccs1`, the IC50 was 10.5 µM.

As for `COc1ccc(Cn2c(O)cc3nn(-c4nc5ccccc5s4)c(=O)c-3c2C)cc1`, the IC50 is 4.88 µM.

Regarding `COc1ccc(CCn2c(O)cc3nn(-c4nc5ccccc5s4)c(=O)c-3c2C)cc1`, the IC50 was 5.11 µM.

As for `Cc1c2c(=O)n(-c3nc4ccccc4s3)nc-2cc(O)n1Cc1cccnc1`, the IC50 was 2.82 µM.

As to `Cc1c2c(=O)n(-c3nc4ccccc4s3)nc-2cc(O)n1Cc1ccc(F)cc1`, the IC50 was 6.8 µM.

Turning to `Cc1c2c(=O)n(-c3nc4ccccc4s3)nc-2cc(O)n1CCC(C)C`, the IC50 was 5.37 µM.

`Cc1c2c(=O)n(-c3nc4ccccc4s3)nc-2cc(O)n1C1CC1`: the IC50 is 2.17 µM.

Consider `Cc1c2c(=O)n(-c3nc4ccccc4s3)nc-2cc(O)n1Cc1ccccc1Cl`, for which the IC50 is 5.16 µM.

`Cc1c2c(=O)n(-c3nc4ccccc4s3)nc-2cc(O)n1CCc1ccc(O)cc1`: the IC50 is 1.29 µM.
